{"source": "ChEMBL document CHEMBL3232946", "about": "“Development of 3,5-dinitrobenzoate-based 5-lipoxygenase inhibitors” (Bioorg Med Chem, 2014)", "key": {"[1]": {"target": "T1, Polyunsaturated fatty acid 5-lipoxygenase (Homo sapiens, UniProt P09917)", "T1 sequence (P09917 whole entry)": "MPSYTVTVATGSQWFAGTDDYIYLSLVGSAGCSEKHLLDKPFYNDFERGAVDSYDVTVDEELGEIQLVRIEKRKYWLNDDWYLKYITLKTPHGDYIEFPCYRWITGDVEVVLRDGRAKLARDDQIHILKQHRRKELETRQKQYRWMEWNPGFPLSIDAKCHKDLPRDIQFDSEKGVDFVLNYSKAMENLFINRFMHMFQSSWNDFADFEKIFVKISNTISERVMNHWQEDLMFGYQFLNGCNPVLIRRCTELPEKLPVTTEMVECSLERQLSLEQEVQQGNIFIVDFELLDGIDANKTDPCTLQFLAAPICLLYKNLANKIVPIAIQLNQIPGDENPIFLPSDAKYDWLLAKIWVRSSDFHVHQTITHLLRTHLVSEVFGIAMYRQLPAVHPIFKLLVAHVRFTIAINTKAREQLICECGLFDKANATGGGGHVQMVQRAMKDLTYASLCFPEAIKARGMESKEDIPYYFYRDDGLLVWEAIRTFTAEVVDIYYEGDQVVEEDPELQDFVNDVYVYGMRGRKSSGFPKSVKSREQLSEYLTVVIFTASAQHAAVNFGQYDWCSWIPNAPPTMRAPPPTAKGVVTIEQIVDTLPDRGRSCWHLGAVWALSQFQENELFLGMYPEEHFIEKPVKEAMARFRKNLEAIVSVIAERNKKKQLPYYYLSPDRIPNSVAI", "assay": "Inhibition of 5-LOX in human whole blood assessed as inhibition of A23187-induced LTB4 production preincubated for 15 mins followed by A23187 induction measured after 30 mins by ELISA"}, "[2]": {"target": "T1, Polyunsaturated fatty acid 5-lipoxygenase", "assay": "Inhibition of human 5-LOX using arachidonic acid as substrate preincubated for 10 mins followed by substrate addition by H2DCFDA staining-based fluorometric analysis"}}}
{"smiles": "O=C(O)c1cccc(C(=O)OCc2ccccc2)c1", "values": [{"measurement": "IC50", "setting": "[1]", "result": "> 50", "unit": "µM"}, {"measurement": "IC50", "setting": "[2]", "result": "> 50", "unit": "µM"}]}
{"smiles": "O=C(O)c1cccc(C(=O)Nc2ccccc2)c1", "values": [{"measurement": "IC50", "setting": "[1]", "result": "> 50", "unit": "µM"}, {"measurement": "IC50", "setting": "[2]", "result": "> 50", "unit": "µM"}]}
{"smiles": "Cc1cccc(OC(=O)c2cc([N+](=O)[O-])cc([N+](=O)[O-])c2)c1", "values": [{"measurement": "IC50", "setting": "[1]", "result": 0.5, "unit": "µM"}, {"measurement": "IC50", "setting": "[2]", "result": 0.006, "unit": "µM"}]}
{"smiles": "O=C(O)c1cccc(C(=O)Nc2cccc3ccccc23)c1", "values": [{"measurement": "IC50", "setting": "[1]", "result": "> 50", "unit": "µM"}, {"measurement": "IC50", "setting": "[2]", "result": "> 50", "unit": "µM"}]}
{"smiles": "O=C(Oc1cccc2ccccc12)c1cc([N+](=O)[O-])cc([N+](=O)[O-])c1", "values": [{"measurement": "IC50", "setting": "[2]", "result": 1, "unit": "µM"}]}
{"smiles": "O=C(Nc1cccc2ccccc12)c1cc([N+](=O)[O-])cc([N+](=O)[O-])c1", "values": [{"measurement": "IC50", "setting": "[1]", "result": "> 50", "unit": "µM"}, {"measurement": "IC50", "setting": "[2]", "result": 0.004, "unit": "µM"}]}
{"smiles": "Cc1cccc(NC(=O)c2cc([N+](=O)[O-])cc([N+](=O)[O-])c2)c1", "values": [{"measurement": "IC50", "setting": "[1]", "result": "> 50", "unit": "µM"}, {"measurement": "IC50", "setting": "[2]", "result": 0.01, "unit": "µM"}]}
{"smiles": "O=C(Nc1cccc(Cl)c1)c1cc([N+](=O)[O-])cc([N+](=O)[O-])c1", "values": [{"measurement": "IC50", "setting": "[1]", "result": "> 50", "unit": "µM"}, {"measurement": "IC50", "setting": "[2]", "result": 0.033, "unit": "µM"}]}
{"smiles": "CCCc1cccc(OC(=O)c2cc([N+](=O)[O-])cc([N+](=O)[O-])c2)c1", "values": [{"measurement": "IC50", "setting": "[1]", "result": 6.5, "unit": "µM"}, {"measurement": "IC50", "setting": "[2]", "result": 7.4, "unit": "µM"}]}
{"smiles": "O=C(Nc1ccccc1)c1cc([N+](=O)[O-])cc([N+](=O)[O-])c1", "values": [{"measurement": "IC50", "setting": "[1]", "result": 15.2, "unit": "µM"}, {"measurement": "IC50", "setting": "[2]", "result": 1.8, "unit": "µM"}]}
{"smiles": "O=C(Oc1cccc(-c2ccccc2)c1)c1cc([N+](=O)[O-])cc([N+](=O)[O-])c1", "values": [{"measurement": "IC50", "setting": "[1]", "result": 38, "unit": "µM"}, {"measurement": "IC50", "setting": "[2]", "result": 8.7, "unit": "µM"}]}
{"smiles": "O=C(Oc1cccc(Cl)c1Cl)c1cc([N+](=O)[O-])cc([N+](=O)[O-])c1", "values": [{"measurement": "IC50", "setting": "[1]", "result": "> 50", "unit": "µM"}, {"measurement": "IC50", "setting": "[2]", "result": "> 50", "unit": "µM"}]}
{"smiles": "O=C(Oc1cccc2ccccc12)c1cccc([N+](=O)[O-])c1", "values": [{"measurement": "IC50", "setting": "[1]", "result": 24.6, "unit": "µM"}, {"measurement": "IC50", "setting": "[2]", "result": 7.1, "unit": "µM"}]}
{"smiles": "O=C(NCc1cccc(Br)c1)c1cc([N+](=O)[O-])cc([N+](=O)[O-])c1", "values": [{"measurement": "IC50", "setting": "[1]", "result": 14.4, "unit": "µM"}, {"measurement": "IC50", "setting": "[2]", "result": 83.6, "unit": "µM"}]}
{"smiles": "O=C(Nc1cccc(Br)c1)c1cc([N+](=O)[O-])cc([N+](=O)[O-])c1", "values": [{"measurement": "IC50", "setting": "[1]", "result": "> 50", "unit": "µM"}, {"measurement": "IC50", "setting": "[2]", "result": "> 50", "unit": "µM"}]}
{"smiles": "O=C(Oc1ccc(-c2ccccc2)cc1)c1cc([N+](=O)[O-])cc([N+](=O)[O-])c1", "values": [{"measurement": "IC50", "setting": "[1]", "result": "> 50", "unit": "µM"}, {"measurement": "IC50", "setting": "[2]", "result": "> 50", "unit": "µM"}]}
{"smiles": "O=C(Oc1ccccc1)c1cc([N+](=O)[O-])cc([N+](=O)[O-])c1", "values": [{"measurement": "IC50", "setting": "[1]", "result": 15.8, "unit": "µM"}, {"measurement": "IC50", "setting": "[2]", "result": 1.6, "unit": "µM"}]}
{"smiles": "O=C(O)c1cccc(C(=O)Oc2cccc3ccccc23)c1", "values": [{"measurement": "IC50", "setting": "[1]", "result": "> 50", "unit": "µM"}, {"measurement": "IC50", "setting": "[2]", "result": "> 50", "unit": "µM"}]}
{"smiles": "COc1ccc(NC(=O)c2cc([N+](=O)[O-])cc([N+](=O)[O-])c2)cc1", "values": [{"measurement": "IC50", "setting": "[1]", "result": 2.7, "unit": "µM"}, {"measurement": "IC50", "setting": "[2]", "result": 0.034, "unit": "µM"}]}
{"smiles": "COc1ccc(NC(=O)c2cc([N+](=O)[O-])cc([N+](=O)[O-])c2)cc1OC", "values": [{"measurement": "IC50", "setting": "[1]", "result": "> 50", "unit": "µM"}, {"measurement": "IC50", "setting": "[2]", "result": 1.1, "unit": "µM"}]}
{"smiles": "O=C(Nc1cccc(-c2ccccc2)c1)c1cc([N+](=O)[O-])cc([N+](=O)[O-])c1", "values": [{"measurement": "IC50", "setting": "[1]", "result": "> 50", "unit": "µM"}, {"measurement": "IC50", "setting": "[2]", "result": 0.03, "unit": "µM"}]}
